Laboratory results taken from US20020173662A1, “Parasiticidal pyrazoles” (priority 1998, published 2002).

System: not given
Assay: not given
Conditions: not given

| SMILES | melting point |
| --- | --- |
| C=C(C)c1nn(-c2c(Cl)cc(C(F)(F)F)cc2Cl)cc1C1CC1(Br)Br (stereo not shown) [Example 1, 4-(2,2-Dibromocyclopropyl)-1-(2,6-dichloro-4-trifluoromethylphenyl)-3-(propen-2-yl)pyrazole] | 86.5 to 88.2 °C |
| FC(F)(F)c1cc(Cl)c(-n2cc(C3CC3(Br)Br)c(C=C(Br)Br)n2)c(Cl)c1 (stereo not shown) [Example 6, 4-(2,2-Dibromocyclopropyl)-3-(2,2-dibromoethenyl)-1-(2,6-dichloro-4-trifluoromethylphenyl)pyrazole] | 106 to 107 °C |
| NC(=O)c1nn(-c2c(Cl)cc(C(F)(F)F)cc2Cl)cc1C1CC1(Br)Br (stereo not shown) [Example 7, 3-Carbamoyl-4-(2,2-dibromocyclopropyl)-1-(2,6-dichloro-4-trifluoromethylphenyl)pyrazole] | 186.2 to 187.3 °C |
| Nc1nn(-c2c(Cl)cc(C(F)(F)F)cc2Cl)cc1C1CC1(Br)Br (stereo not shown) [Example 8, 3-Amino-4-(2,2-dibromocyclopropyl)-1-(2,6-dichloro-4-trifluoromethylphenyl)pyrazole] | 124.9 to 126 °C |

System: adult Stomoxys calcitrans
Assay: Test for insecticidal activity: topical application to adult flies, mortality at 24 hours
Type: in vivo
Conditions: acetone solution (1 μl) applied to thorax, mortality assessed 24 hours after dosing
Method: Test for Insecticidal Activity Adult flies (Stomoxys calcitrans) are collected and anaesthetized using CO2. An acetone solution (1 μl) containing the test compound is applied directly to the thorax of each fly and then the flies are placed carefully into a 50 ml tube covered with damp gauze to recover from the CO2. Negative controls have acetone (1 μl) dispensed onto them. Mortality is assessed 24 hours after dosing. Table 1 illustrates the in vivo activity of a selection of the compounds of the invention against adult Stomoxys calcitrans. Dosages required to produce 100% mortality are given in the final column as μg/fly.

| SMILES | Dosage required to produce 100% mortality |
| --- | --- |
| C=Cc1nn(-c2c(Cl)cc(C(F)(F)F)cc2Cl)cc1C1CC1(Br)Br (stereo not shown) [Example 4, 4-(2,2-Dibromocyclopropyl)-1-(2,6-dichloro-4-trifluoromethylphenyl)-3-ethenylpyrazole] | 0.10 μG/FLY |
| FC(F)=Cc1nn(-c2c(Cl)cc(C(F)(F)F)cc2Cl)cc1C1CC1(Br)Br (stereo not shown) [Example 5, 4-(2,2-Dibromocyclopropyl)-1-(2,6-dichloro-4-trifluoromethylphenyl)-3-(2,2-difluoroethenyl)pyrazole] | 0.10 μG/FLY |
| FC(F)(F)c1cc(Cl)c(-n2cc(C3CC3(Br)Br)cn2)c(Cl)c1 (stereo not shown) [Example 9, 4-(2,2-Dibromocyclopropyl)-1-(2,6-dichloro-4-trifluoromethylphenyl)pyrazole] | 0.05 μG/FLY |
| FC(F)(F)c1cc(Cl)c(-n2cc(C3CC3(Br)Br)c(Br)n2)c(Cl)c1 (stereo not shown) [Example 11, 3-Bromo4-(2,2-dibromocyclopropyl)-1-(2,6-dichloro-4-trifluoromethylphenyl)pyrazole] | 0.05 μG/FLY |

System: Boophilus microplus larvae
Assay: Test for acaricidal activity: treated filter paper envelope, larval mortality
Conditions: larvae in treated filter paper envelope; 25° C.; mortality assessed after 48 hours
Method: Test for Acaricidal Activity
A dose of 10 μg/cm^2 is created by evenly pipetting 0.5 ml of a 1 mg/ml solution of the test compound in a suitable solvent such as acetone or ethanol onto a Whatman No. 1 (Trade Mark) filter paper cut to a size of 8×6.25 cm. When dry, the paper is folded in half, sealed on two sides using a crimping device and placed in a Kilner jar containing a cotton wool pad dampened with water. The jar is then sealed and placed at 25° C. for 24 hours. Next, approximately 50 Boophilus microplus larvae are introduced into the treated paper envelope which is then crimped along the third side to effect a complete seal. The paper envelope is returned to the Kilner jar, which is sealed and placed at 25° C. for a further 48 hours. The papers are then removed and mortality assessed. Negative controls are provided by treating an appropriately cut filter paper with 0.5 ml of solvent only and following the same procedure. Activity at other doses is obtained by varying the concentration of the test solution.
Table 2 illustrates the in vitro activity of a selection of the compounds of the invention against Boophilus microplus larvae. Dosages required to produce 100% mortality are given in the final column as μg/cm^2.

| SMILES | Dosage required to produce 100% mortality |
| --- | --- |
| FC(F)(F)c1cc(Cl)c(-n2cc(C3CC3(Br)Br)c(Cl)n2)c(Cl)c1 (stereo not shown) [Example 10, 3-Chloro-4-(2,2-dibromocyclopropyl)-1-(2,6-dichloro-4-trifluoromethylphenyl)pyrazole] | 1.00 μg/cm^2 |
| FC(F)(F)c1cc(Cl)c(-n2cc(C3CC3(Br)Br)c(Br)n2)c(Cl)c1 (stereo not shown) [Example 11, 3-Bromo4-(2,2-dibromocyclopropyl)-1-(2,6-dichloro-4-trifluoromethylphenyl)pyrazole] | 1.00 μg/cm^2 |
